From patent US20030119826A1, “Neuroprotective treatment methods using selective iNOS inhibitors” (Pharmacia Corporation, priority 2001, published 2003)
Counter-ions that a name gives are not always drawn. Like-named read-outs stand apart in the source and are kept apart here.

How the values were obtained:
[1] = tested on: Human Cartilage explants, IL-1β-induced nitric oxide synthase (nitrite production); assay: Human cartilage explant assay (nitrite production, IL-1β induced); format: cell-based; settings: inhibition of nitrite production, IL-1β stimulated explants
Experimental: Bone pieces are rinsed twice with Dulbecco's Phosphate Buffered Saline (GibcoBRL) and once with Dulbecco's Modified Eagles Medium (GibcoBRL) and placed into a petri dish with phenol red free Minimum Essential Medium (MEM) (GibcoBRL). Cartilage was cut into small explants of approximately 15-45 mg in weight and one or two explants per well are placed into either 96 or 48 well culture plates with 200-500 μL of culture media per well. The culture media was either a custom modification of Minimum Essential Medium(Eagle) with Earle's salts (GibcoBRL) prepared without L-Arginine, without L-Glutamine and without phenol red or a custom modification of serumless Neuman and Tytell (GibcoBRL) medium prepared without L-arginine, without insulin, without ascorbic acid, without L-glutamine and without phenol red. Both are supplemented before use with 100 μM L-Arginine (Sigma), 2 mM L-glutamine, 1X HL-1 supplement (BioWhittaker), […] ascorbic acid (Sigma) and 150 pg/ml recombinant human IL-1β (RD Systems) to induce nitric oxide synthase. Compounds are then added in 10 μL aliquots and the explants incubated at 37° C. with 5% CO2 for 18-24 hours. The day old supernatant is then discarded and replaced with fresh culture media containing recombinant human IL-1β and compound and incubated for another 20-24 hours. […] All samples are done in quadruplicate. Unstimulated controls are cultured in media in the absence of recombinant human IL-1β. IC50 values (Table I)are determined from plotting the percent inhibition of nitrite production at six different concentrations of inhibitor.

[2] = tested on: LPS-induced increase in plasma nitrite/nitrate levels; assay: Endotoxin (LPS)-treated rats, plasma nitrite/nitrate levels; format: in vivo, rat; settings: oral administration, plasma nitrite/nitrate 5 hours post-treatment
Experimental: Plasma nitrite/nitrate levels can be determined 5 hours post-treatment.

retinal ganglion cells = settings: rats with chronic moderately elevated IOP, cited from earlier work
[3] = Rattus norvegicus, read-out: ED50

Compound	IC50 ([1]; Homo sapiens)	ED50 [2, 3]	further results
CC(=N)NCC(F)=CCC[C@H](N)C(=O)O (mixture of isomers) [Example B, (2S,5E/Z)-2-amino-6-fluoro-7-[(1-iminoethyl)amino]-5-heptenoic acid, dihydrochloride]	200 nM	–	–
CC(=N)NC/C(F)=C\CC[C@H](N)C(=O)O [Example A, (2S,5E)-2-amino-6-fluoro-7-[(1-iminoethyl)amino]-5-heptenoic acid, dihydrochloride, monohydrate]	100 nM	< 0.1 mg/kg	ED50 ([2]; dihydrochloride, monohydrate): <0.1 mg/kg
CC(=N)NC/C(F)=C/CC[C@H](N)C(=O)O [Example D, (2S,5Z)-2-amino-6-fluoro-7-[(1-iminoethyl)amino]-5-heptenoic acid, trihydrochloride, dihydrate]	2500 nM	> 10 mg/kg	–
CC(=NO)NC/C(F)=C\CC[C@H](N)C(=O)O [Example G, (2S,5E)-2-amino-6-fluoro-7-[(1-hydroximinoethyl)amino]-5-heptenoic acid]	–	< 0.1 mg/kg	melting point: 198 to 200 °C
CC(=N)NC/C(F)=C\CC[C@H](N)C(=O)Nc1nnn[nH]1 [Example H, (2S,5E)-2-amino-6-fluoro-7-[(1-iminoethyl)amino]-N-(1H-tetrazol-5-yl) 5-heptenamide, dihydrochloride]	–	< 0.3 mg/kg	–
CC(=N)NC/C(F)=C\CC[C@](C)(N)C(=O)O.Cl.Cl [Example HH, (2S,5E)-2-amino-2-methyl-6-fluoro-7-[(1-iminoethyl)amino]-5-heptenoic acid, dihydrochloride]	400 nM	0.4 mg/kg	–
COC[C@](N)(CSCCNC(C)=N)C(=O)O [Example J, 2-[[[2-[(1-Iminoethyl)amino]ethyl]thio]methyl]-O-methyl-D-serine, dihydrochloride]	–	–	IC50 [1]: 8200 nM
CC(=N)NC/C=C\CC[C@](C)(N)C(=O)O.Cl.Cl [Example LL, (2S,5Z)-2-amino-2-methyl-7-[(1-iminoethyl)amino]-5-heptenoic acid, dihydrochloride]	800 nM	0.3 mg/kg	–
N=C1CCCC[C@H](CCCC[C@@H](N)C(=O)O)N1 [Example V, ([…]R,2S)-[…]-aminohexahydro-7-imino-1H-azepine-2-hexanoic acid, trihydrate hydrochloride]	< 10000 nM	< 3 mg/kg	–
N=C1CCCC[C@@H](CCCC[C@H](N)C(=O)O)N1 [Example W, ([…]S,2R)-[…]-aminohexahydro-7-imino-1H-azepine-2-hexanoic acid, trihydrate hydrochloride]	> 30000 nM	> 10 mg/kg	–
N=C1CCCC[C@H](CCCC[C@H](N)C(=O)O)N1 [Example X, ([…]S,2S)-[…]-aminohexahydro-7-imino-1H-azepine-2-hexanoic acid, trihydrate hydrochloride]	< 10000 nM	–	–
N=C1CCCC[C@H](CCCC[C@@H](N)C(=O)O)N1 [Example Y, ([…]R,2S)-[…]-aminohexahydro-7-imino-1H-azepine-2-hexanoic acid, trihydrate hydrochloride]	–	–	IC50 [1]: < 10000 nM
N=C(N)NN [aminoguanidine]	–	–	neuroprotection / loss of retinal ganglion cells (retinal ganglion cells): blocks loss of retinal ganglion cells; neuroprotection / loss of retinal ganglion cells (retinal ganglion cells; listed as Aminoguanidine): provide neuroprotection to retinal ganglion cells
